Assay results as given in patent US20080058211A1, “Method and Composition for the Modulation of Toxin Resistance in Plant Cells” (BOARD OF REGENTS, THE UNIVERSITY OF TEXAS SYSTEM, priority 2006, published 2008).

Assays:
[1] = tested on: ATMEKK1, ATMPK3, ATPK19, ERF2, ERF3, ERF4 and ACS6 genes; conditions: cited from earlier work
[2] = tested on: [Ca^2+]cyt in excised roots; conditions: cited from earlier work; for suppression of the response of roots to eATP: antagonist or channel blocker with eATP; for effect on [Ca2+]cyt: 10 mM CaCl2
Arabidopsis leaves = conditions: cited from earlier work
[3] = tested on: nitric oxide levels in elongating Arabidopsis pollen tubes; test: nitric oxide in elongating pollen tubes, DAF-2D fluorescence; format: cell-based, Arabidopsis thaliana; conditions: 125 μM
Procedure: Increased extracellular ATPγS increases nitric oxide production in elongating pollen tubes. In addition to using agonists and antagonists to indirectly study the relationship of eATPγS and nitric oxide, direct measurements of increases in nitric oxide after application of ATPγS and AMPαS were examined. Pollen grains have a high level of auto-fluorescence and the nitric oxide levels in elongating Arabidopsis pollen tubes were determined using DAF-2D, a fluorescent marker for the presence of nitric oxide that was dissolved in DMSO. Elongating pollen tubes were treated with DAF-2D alone or with ATPγS or AMPαS.
Measurements of NO in growing pollen tubes treated with ATPγS or AMPαS. Pollen was germinated as described for the pollen elongation measurements. After 1-2 hours when pollen tubes were clearly visible, 90 μL of PGM containing 5 μM 4,5-diaminofluorescein diacetate (DAF-2D, Molecular Probes) with or without ATPγS or AMPαS was added. […] Using Image J, the average fluorescence for the pollen tubes on each slide and each time point were determined. Since background fluorescence for each slide varied, three areas where no pollen tubes were present were averaged and subtracted from the pollen tube averages for each slide. Pollen tubes with and without nucleotides were compared to each other at similar time points to determine if there was a difference in fluorescence.

Arabidopsis pollen tubes = test: pollen tube elongation; format: cell-based, Arabidopsis thaliana
Procedure: Arabidopsis pollen tube elongation is inhibited by ATPγS. As vesicles fuse to deliver membranes to the tip of elongating pollen tubes, ATP is likely to be released. So ATPγS and AMPαS were investigated for their ability to affect pollen tube elongation. After pollen tubes had begun to grow, from about 0 to about 250 μM ATPγS or AMPαS were added and the subsequent growth rate was determined.
Blocking the nitric oxide signaling pathway reverses the inhibition of Arabidopsis elongation by ATPγS. The inhibition of Arabidopsis pollen tube elongation was also mediated via the NO signaling pathway. Pollen tube growth rates were measured in 0.5% DMSO with and without 100 μM ATPγS.
Measurements of pollen tube elongation. Pollen was germinated as described above except 10 μL drops of pollen/PGM suspension were added to 60 μL of PGM+1% agar that had been deposited into a concavity slide. The pollen was allowed to germinate for 1-2 h, so that pollen tubes were clearly visible. Then 90 μL of PGM or PGM containing ATPγS, AMPαS, DMSO or ODQ was added and a photo was taken using a brightfield microscope at 40×. The coordinates of each photo were noted, so that the exact pollen tubes could be photographed 50-60 minutes later. Using Image J, the pollen tube lengths for individual pollen tubes were measured and a growth rate of μm/min was determined.

Arabidopsis pollen = test: in vitro pollen germination (Arabidopsis); format: cell-based, Arabidopsis thaliana
Procedure: Effects of Extracellular ATPγS and AMPαS on Pollen Germination. Arabidopsis pollen was germinated in pollen germination media (PGM) containing from about zero to about 400 μM ATPγS or AMPαS. […] The method of collection included vortexing flowers in PGM creating a homogenous suspension of pollen from tens to hundreds of flowers. This method caused the release of a small amount of ATP, 2-5 μM into the PGM (data not shown).
The nitric oxide signaling pathway mediates the inhibition of Arabidopsis pollen germination by ATPγS. To examine the downstream effectors involved in the inhibition of Arabidopsis pollen germination by ATPγS, different agonists and antagonists of the known nitric oxide signaling pathway were examined. […] Some of the nitric oxide signaling pathway agonists are water soluble while others are DMSO soluble.
Strains and Growth Conditions. For the experiments related to the nitric oxide-ATP signaling relationship, all Arabidopsis thaliana plants were ecotype Wassilewskija (WS), and Medicago truncatula plants were strain A17. All of the plants were grown in Metro-Mix 200 soil at 24° C. with constant light. In vitro Pollen Germination. Arabidopsis flowers in stage 12-14 (Smyth et al., 1990) or Medicago truncatula flowers in stage F3 (Firnhaber et al., 2005) were collected and vortexed for 1 min in pollen germination media (PGM) (0.01% boric acid, 1 mM MgSO4, 1 mM CaCl2, 1 mM Ca(NO3)2, 5 mM HEPES, 18% Sucrose pH 7.0). The supernatant containing the pollen was collected by pipet, and up to three rounds of vortexing of the same pollen could be pooled together. The pollen suspended in PGM was then added in 10-12 μL drops to 400 μL PGM+1% agar that had been spread as a thin film across a microscope slide. The slides and pollen were then placed into humidity chambers, petri dishes with water saturated kimwipes, and allowed to germinate at 26° C. overnight. Pictures of the germinated pollen were taken with a digital camera attached to a brightfield microscope at 40×. The digital images were scored for the percent of pollen germinated using the AlphaEase software from Alpha Innotech. Pollen with tubes that were shorter than the diameter of the pollen grain were not counted as germinated or non-germinated. The chemicals: ATPγS, AMPαS, N2, 2-O-dibutyrylguanosine 3′:5′-cyclic monophospohate (Dib cGMP), Sildenafil citrate (Viagra™, Pfizer), and 2-(N,N-Diethylamino)-diazenolate 2-oxide (NONOate) were added to the pollen/PGM suspension prior to adding the drops to the PGM+1% agar. The chemicals 1H-[1,2,4]Oxadiazolo[4,3,-a]quinoxalin-1-one (ODQ), N-[4-[1-(3-Aminopropyl)-2-hydroxy-2-nitrosohydrazino]butyl]-1,3-propanediamine (SNAP), and 3-isobutyl-1-methylxanthine (IBMX) were diluted in DMSO and added to the pollen/PGM suspension to a final concentration of DMSO of 0.1%.
For successful pollen germination it was critical for the plants to be healthy and growing in slightly dry soil. To achieve this, the plants were briefly watered 1-2 days before the experiment. As Johnson-Brousseau and McCormick note in their paper (Johnson-Brousseau and McCormick 2004), a solid base is necessary for best in vitro germination of Arabidopsis pollen. The pollen would not germinate in liquid PGM if not overlaid on a solid PGM+1% agar base, and the vortexing and deposition of the pollen/PGM suspension needed to take place in less than 30 minutes or germination rates dropped considerably.

[4] = tested on: root hairs of Arabidopsis thaliana; conditions: cited from earlier work; for induction of membrane depolarization: applied nucleotide or phosphate
Δ[Ca^2+]cyt = conditions: co-application with OGA; cited from earlier work
roots = conditions: in vivo; cited from earlier work
[Ca^2+]cyt = dextran-conjugated calcium green as reporter; cited from earlier work
[5] = DMSO-soluble agonist plus 50 μM ATPγS, 0.1% DMSO
[6] = water-soluble agonist plus 50 μM ATPγS

[Gd] [gadolinium]
blocking of nucleotide-induced gene expression changes ([1]; cells pre-treated): partially blocked | suppression of the response of roots to eATP [2]: completely suppressed

Cc1nc(N=Nc2ccc(S(=O)(=O)O)cc2S(=O)(=O)O)c(COP(=O)(O)O)c(C=O)c1O [PPADS, pyridoxalphosphate-6-azophenyl-2′,4′-disulfonic acid]
suppression of the response of roots to eATP [2]: completely suppressed | blocking of ATP-induced superoxide production (Arabidopsis leaves; inhibitor treatment): block the response

Nc1ncnc2c1ncn2[C@@H]1O[C@H](COP(O)(O)=S)[C@@H](O)[C@H]1O [AMPαS]
DAF-2D fluorescence [3]: did not significantly change | effect on pollen tube elongation rates (Arabidopsis pollen tubes; up to about 250 μM): no significant effect | agonist of pollen responses (Arabidopsis pollen): is not | percent of germinated pollen (Arabidopsis pollen; PGM with about zero to about 400 μM): did not significantly change

phosphate
effect on [Ca2+]cyt ([2]; excised roots): Neither AMP or phosphate induced any significant change | induction of membrane depolarization [4]: no effect

Nc1ncnc2c1ncn2[C@@H]1O[C@H](COP(=O)(O)OP(O)(O)=S)[C@@H](O)[C@H]1O [ADPβS]
effect on Δ[Ca2+]cyt together with OGA (Δ[Ca^2+]cyt): similarly increased | agonist of pollen responses (Arabidopsis pollen): active agonist | concentration that could inhibit the straight growth of roots (roots): 0.3 mM

Nc1ccn([C@@H]2O[C@H](COP(=O)(O)OP(=O)(O)OP(=O)(O)O)[C@@H](O)[C@H]2O)c(=O)n1 [CTP]
induction of membrane depolarization [4]: did not

O=c1onc2cnc3ccccc3n12 [ODQ, 1H-[1,2,4]Oxadiazolo[4,3,-a]quinoxalin-1-one]
effect on pollen tube elongation alone (Arabidopsis pollen tubes; 100 μM ODQ alone, 0.5% DMSO): no effect | reversal of inhibition of pollen tube elongation (Arabidopsis pollen tubes; 100 μM ODQ with 100 μM ATPγS, 0.5% DMSO): reversed the inhibition | reversal of inhibition of pollen germination (Arabidopsis pollen; 100 μM ODQ with 250 μM ATPγS): reverse the inhibition

NCCCNCCCCN(CCCN)N(O)N=O [SNAP, N-[4-[1-(3-Aminopropyl)-2-hydroxy-2-nitrosohydrazino]butyl]-1,3-propanediamine]
effect of added NO pathway agonist on pollen germination with ATPγS (Arabidopsis pollen; [5]): cause 50 μM ATPγS to inhibit pollen germination

CCN(CC)[N+]([O-])=NO [NONOate, 2-(N,N-Diethylamino)-diazenolate 2-oxide]
effect of added NO pathway agonist on pollen germination with ATPγS (Arabidopsis pollen; [6]): caused 50 μM ATPγS to become inhibitory

CCCC(=O)Nc1nc2c(ncn2C2OC3COP(=O)([O-])OC3C2OC(=O)CCC)c(=O)[nH]1.[Na+] (stereo not drawn) [DibcGMP, N2,2-O-dibutyrylguanosine 3′:5′-cyclic monophospohate]
effect of added NO pathway agonist on pollen germination with ATPγS (Arabidopsis pollen; [6]): caused 50 μM ATPγS to become inhibitory

Nc1ncnc2c1ncn2[C@@H]1O[C@H](COP(=O)(O)OP(=O)(O)O)[C@@H](O)[C@H]1O [ADP]
abundance of mRNAs (MAP kinases, ERF2, ERF3, ERF4, ACS6) ([1]; application of 500 μM): induced an increased abundance | change in [Ca2+]cyt ([Ca^2+]cyt): no change | concentration that could inhibit the straight growth of roots (roots): 3 mM | induction of membrane depolarization [4]: induced large depolarizations | EC50 ([4]; dose-response studies, read-out: half-maximal depolarization): ~10 µM

Nc1nc2c(ncn2[C@@H]2O[C@H](COP(=O)(O)OP(=O)(O)OP(=O)(O)O)[C@@H](O)[C@H]2O)c(=O)[nH]1 [GTP]
induction of membrane depolarization [4]: induced large depolarizations

Cc1cn([C@H]2C[C@H](O)[C@@H](COP(=O)(O)OP(=O)(O)OP(=O)(O)O)O2)c(=O)[nH]c1=O [TTP]
induction of membrane depolarization [4]: did not

O=c1ccn([C@@H]2O[C@H](COP(=O)(O)OP(=O)(O)OP(=O)(O)O)[C@@H](O)[C@H]2O)c(=O)[nH]1 [UTP]
concentrations at which ineffective on [Ca2+]cyt ([2]; excised roots): below 100 μM

Nc1ncnc2c1ncn2[C@@H]1O[C@H](COP(=O)(O)O)[C@@H](O)[C@H]1O [AMP]
effect on [Ca2+]cyt ([2]; excised roots): Neither AMP or phosphate induced any significant change | effect on superoxide production (Arabidopsis leaves; equivalent concentrations delivered into the leaves): no significant effect | induction of membrane depolarization [4]: did not

CC(C)Cn1c(=O)n(C)c(=O)c2[nH]cnc21 [IBMX, 3-isobutyl-1-methylxanthine]
effect of added NO pathway agonist on pollen germination with ATPγS (Arabidopsis pollen; [5]): cause 50 μM ATPγS to inhibit pollen germination

Nc1ncnc2c1ncn2[C@@H]1O[C@H](COP(O)(O)=S)[C@@H](O)[C@H]1O [AMPS]
effect on Δ[Ca2+]cyt together with OGA (Δ[Ca^2+]cyt): significant inhibitory effect
